Measurements from PubChem BioAssay (NCI).
“And” between values parts separate entries of the source, which are not always exact repeats. Identical values can stand only once.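 Five concentrations, 48 hours, 96-well plates. Here, GI50 denotes the concentration required for 50% inhibition of growth. TGI is the concentration that stops growth completely.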

Each compound was assayed on A549 NSCLC (assay: NCI anticancer screen, dose series, 48 h).

SMILES | TGI | GI50
Cc1ccc2c(c1C)C(=O)C1(Cc3cc4c(cc3C1=O)CCC4)C2 (stereo unspecified) | > 100 µM | 
CCCCI(O)OS(=O)(=O)c1ccc(C)cc1 | > 100 µM | 
O=C(CCc1cc(O)cc(O)c1)NCCc1cc(OCc2ccccc2)cc(OCc2ccccc2)c1 | 23.6 µM | 
Clc1cccc(-c2sc(-c3cccs3)cc2Cc2cccs2)c1 | > 10 µM | 
c1ccc(C2=NC3OC2c2ccccc23)cc1 (stereo unspecified) | > 10 µM | 
O=c1oc2ccc3ccccc3c2cc1-c1cn2ccsc2n1 | > 100 µM | 
CCOC(=O)CSc1nc(N)c2c(-c3ccccc3)c3c(nc2n1)CCCC3 | > 100 µM | 
COC(=O)/C=C(/C=C1/C(C#N)=C(N)N(c2ccc(Cl)cc2)C1(C)/C(=C\C(=O)OC)C(=O)OC)C(=O)OC (stereo unspecified) | > 100 µM | 
Cc1c2ccnc(C(N)=O)c2c(C)c2c1[nH]c1ccccc12 | 37.1 µM and 15.8 µM | 3.28 µM
Cc1ccccc1-c1nc2c(N)nc(N)nc2nc1N | > 100 µM | 
O=c1c2c3c(sc2[nH]c(=S)n1-c1ccccc1)CCCc1ccc([N+](=O)[O-])cc1-3 | > 100 µM | 
CCOC(=O)c1c(N2CCCC2)[nH]c(=O)c(C(c2ccc(OC)cc2)c2c(O)c(C(=O)OCC)c(N3CCCC3)[nH]c2=O)c1O | > 100 µM | 
CC1CC(N2CCOCC2)=Nc2ccccc2N1C (stereo unspecified) | > 100 µM | 
CCOC1C=CC(=O)C(CO)O1 (stereo unspecified) | 34.9 µM | 
COC(=O)CC(=O)OSc1ccccc1 | 77.3 µM | 
CC(C)C(Br)CCC1=CCC(Br)(Br)C1 (stereo unspecified) | 33.8 µM | 
Cc1cc([N+](=O)[O-])c(C)c2c1[nH]c1ccc(Cl)cc12 | > 100 µM | 
COC(=O)CNC(=O)C(CSC(=O)OCC1c2ccccc2-c2ccccc21)NC(=O)CCC(NC(=O)OCC1c2ccccc2-c2ccccc21)C(=O)OC (stereo unspecified) | 27.5 µM | 
COc1ccc(CNc2cnc3ccc(N)cc3n2)cc1 | > 100 µM | 
COc1cc2ccc3c4cc(OC)c(OC)cc4c[n+](C)c3c2cc1O | > 100 µM | 
COc1cccc(C2c3cc4c(cc3OC(O)C2C)OCO4)c1OC (stereo unspecified) | 26 µM | 
CCOC(=O)/C=C/c1nc(C#N)c(N)o1 | > 100 µM | 

Each compound was assayed on UACC-257 melanoma (assay: NCI anticancer screen, dose series, 48 h).

SMILES | TGI
COc1ccc2ccc3oc(=O)c(C)cc3c2c1 | > 100 µM
CCCCCCN(CCCCCC)C(=S)N/N=C(\C)c1ccccn1 | 4.34 µM
CN(C)c1nc(Oc2nc(N(C)C)nc(N(C)C)n2)nc(N(C)C)n1 | > 100 µM
O=c1c(F)cn2c(=O)n1CCCCCCCn1c(=O)c(F)cn(c1=O)CCCCCCC2 | > 100 µM
O=C(ON=C1c2ccccc2C(Br)C(Br)c2ccccc21)c1ccccc1 (stereo unspecified) | 41.7 µM
CN(C)CCn1c(=O)c2ccc(NCCCN(C)CCCNc3ccc4c(=O)n(CCN(C)C)c(=O)n5c6ccc(O)cc6c(=O)c3c45)c3c(=O)c4cc(O)ccc4n(c1=O)c23 | 1.23 µM
Cn1c2ccccc2n2c3ncccc3c(=O)c(C#N)c12 | > 100 µM
S=C(Cc1ccc2c(c1)Sc1ccccc1O2)N1CCOCC1 | > 100 µM
C[n+]1cc2cc(O)c(O)cc2c2ccc3cc(O)c(O)cc3c21 | > 100 µM
COc1ccc(N=Nc2c(-c3c(OC)cc4occc4c3OC)[nH]c(=O)c(C#N)c2C)cc1 | > 100 µM
O=C(/C=C/c1ccc(Cl)cc1)Oc1ccc(C=C2CCC/C(=C\c3ccc(OC(=O)/C=C/c4ccc(Cl)cc4)cc3)C2=O)cc1 | > 100 µM
c1ccc2c(c1)SCCCS2 | > 100 µM
COc1ccc2c(c1)c1c(n2CCN2CCCCC2)-c2cccc(OC)c2CC1 | 38 µM
O=[N+]([O-])c1ccc(C[P+]2(c3ccccc3)CCCCC2)cc1 | > 100 µM
COc1ccc2nc(NC(=O)/C(C#N)=C/c3ccccc3)sc2c1 | > 100 µM
Cc1c(C)n(-c2ccccc2)c2nc(S(C)=O)nc(S(C)=O)c12 (stereo unspecified) | 25.9 µM
CC1(C)CC(=O)C2=C(C1)C(c1ccccc1Cl)C1C(=O)CC(C)(C)CC1(O)O2 (stereo unspecified) | > 95.9 µM
Cn1nc(-c2ccc(S(=O)(=O)/N=C(\NN)Nc3ccc(Cl)cc3)s2)cc1C(F)(F)F | 34 µM
C[C@]12CCC3[C@@H](CCC45OC4C(=O)CC[C@]35C)C1Cc1cnn(-c3ccc(F)cc3)c1N2 (stereo partly specified) | > 100 µM
CCc1c(O)cc(=O)oc1-c1ccc(OC)c(OC)c1 | > 100 µM
Cc1ccc2c(c1C)C(=O)C1(Cc3cc4c(cc3C1=O)CCC4)C2 (stereo unspecified) | > 100 µM
CCCCI(O)OS(=O)(=O)c1ccc(C)cc1 | > 100 µM

SMILES | TGI
O=C(CCc1cc(O)cc(O)c1)NCCc1cc(OCc2ccccc2)cc(OCc2ccccc2)c1 | 70 µM
Clc1cccc(-c2sc(-c3cccs3)cc2Cc2cccs2)c1 | > 10 µM
c1ccc(C2=NC3OC2c2ccccc23)cc1 (stereo unspecified) | > 10 µM
O=c1oc2ccc3ccccc3c2cc1-c1cn2ccsc2n1 | 66.1 µM
CCOC(=O)CSc1nc(N)c2c(-c3ccccc3)c3c(nc2n1)CCCC3 | > 100 µM
COC(=O)/C=C(/C=C1/C(C#N)=C(N)N(c2ccc(Cl)cc2)C1(C)/C(=C\C(=O)OC)C(=O)OC)C(=O)OC (stereo unspecified) | 35.8 µM
Cc1c2ccnc(C(N)=O)c2c(C)c2c1[nH]c1ccccc12 | 35.1 µM
Cc1ccccc1-c1nc2c(N)nc(N)nc2nc1N | > 100 µM
O=c1c2c3c(sc2[nH]c(=S)n1-c1ccccc1)CCCc1ccc([N+](=O)[O-])cc1-3 | > 100 µM
CCOC(=O)c1c(N2CCCC2)[nH]c(=O)c(C(c2ccc(OC)cc2)c2c(O)c(C(=O)OCC)c(N3CCCC3)[nH]c2=O)c1O | > 100 µM
CC1CC(N2CCOCC2)=Nc2ccccc2N1C (stereo unspecified) | > 100 µM
CCOC1C=CC(=O)C(CO)O1 (stereo unspecified) | 19.9 µM
COC(=O)CC(=O)OSc1ccccc1 | 87.7 µM
CC(C)C(Br)CCC1=CCC(Br)(Br)C1 (stereo unspecified) | 28.2 µM
Cc1cc([N+](=O)[O-])c(C)c2c1[nH]c1ccc(Cl)cc12 | > 100 µM
COCOc1ccc(C(=O)Oc2cccc3c2OC(C)(C)O3)c(OCOC)c1 | > 100 µM
COC(=O)CNC(=O)C(CSC(=O)OCC1c2ccccc2-c2ccccc21)NC(=O)CCC(NC(=O)OCC1c2ccccc2-c2ccccc21)C(=O)OC (stereo unspecified) | > 100 µM
COc1ccc(CNc2cnc3ccc(N)cc3n2)cc1 | > 100 µM
COc1cc2ccc3c4cc(OC)c(OC)cc4c[n+](C)c3c2cc1O | > 100 µM
COc1cccc(C2c3cc4c(cc3OC(O)C2C)OCO4)c1OC (stereo unspecified) | 37.9 µM
CCOC(=O)/C=C/c1nc(C#N)c(N)o1 | > 100 µM

What follows are compounds tested on U251 CNS (assay: NCI anticancer screen, dose series, 48 h).

SMILES | TGI | GI50
COc1ccc2ccc3oc(=O)c(C)cc3c2c1 | > 100 µM | 
CCCCCCN(CCCCCC)C(=S)N/N=C(\C)c1ccccn1 | 1.71 µM | 
CN(C)c1nc(Oc2nc(N(C)C)nc(N(C)C)n2)nc(N(C)C)n1 | > 100 µM | 
O=c1c(F)cn2c(=O)n1CCCCCCCn1c(=O)c(F)cn(c1=O)CCCCCCC2 | > 100 µM | 
O=C(ON=C1c2ccccc2C(Br)C(Br)c2ccccc21)c1ccccc1 (stereo unspecified) | 31.6 µM | 
CN(C)CCn1c(=O)c2ccc(NCCCN(C)CCCNc3ccc4c(=O)n(CCN(C)C)c(=O)n5c6ccc(O)cc6c(=O)c3c45)c3c(=O)c4cc(O)ccc4n(c1=O)c23 | 0.3 µM | 
Cn1c2ccccc2n2c3ncccc3c(=O)c(C#N)c12 | 34 µM | 
S=C(Cc1ccc2c(c1)Sc1ccccc1O2)N1CCOCC1 | > 100 µM | 
C[n+]1cc2cc(O)c(O)cc2c2ccc3cc(O)c(O)cc3c21 | 9.91 µM | 
COc1ccc(N=Nc2c(-c3c(OC)cc4occc4c3OC)[nH]c(=O)c(C#N)c2C)cc1 | > 100 µM | 
O=C(/C=C/c1ccc(Cl)cc1)Oc1ccc(C=C2CCC/C(=C\c3ccc(OC(=O)/C=C/c4ccc(Cl)cc4)cc3)C2=O)cc1 | > 100 µM | 
c1ccc2c(c1)SCCCS2 | > 100 µM | 
COc1ccc2c(c1)c1c(n2CCN2CCCCC2)-c2cccc(OC)c2CC1 | 29.9 µM | 
O=[N+]([O-])c1ccc(C[P+]2(c3ccccc3)CCCCC2)cc1 | > 100 µM | 
COc1ccc2nc(NC(=O)/C(C#N)=C/c3ccccc3)sc2c1 | > 100 µM | 
Cc1c(C)n(-c2ccccc2)c2nc(S(C)=O)nc(S(C)=O)c12 (stereo unspecified) | 21.1 µM | 
CC1(C)CC(=O)C2=C(C1)C(c1ccccc1Cl)C1C(=O)CC(C)(C)CC1(O)O2 (stereo unspecified) | > 100 µM | 
Cn1nc(-c2ccc(S(=O)(=O)/N=C(\NN)Nc3ccc(Cl)cc3)s2)cc1C(F)(F)F | 28.3 µM | 
C[C@]12CCC3[C@@H](CCC45OC4C(=O)CC[C@]35C)C1Cc1cnn(-c3ccc(F)cc3)c1N2 (stereo partly specified) | 98 µM | 
CCc1c(O)cc(=O)oc1-c1ccc(OC)c(OC)c1 | > 100 µM | 

SMILES | TGI | GI50
Cc1ccc2c(c1C)C(=O)C1(Cc3cc4c(cc3C1=O)CCC4)C2 (stereo unspecified) | > 100 µM | 
CCCCI(O)OS(=O)(=O)c1ccc(C)cc1 | > 100 µM | 
O=C(CCc1cc(O)cc(O)c1)NCCc1cc(OCc2ccccc2)cc(OCc2ccccc2)c1 | > 100 µM | 
c1ccc(C2=NC3OC2c2ccccc23)cc1 (stereo unspecified) | > 10 µM | 
O=c1oc2ccc3ccccc3c2cc1-c1cn2ccsc2n1 | > 100 µM | 
CCOC(=O)CSc1nc(N)c2c(-c3ccccc3)c3c(nc2n1)CCCC3 | > 100 µM | 
COC(=O)/C=C(/C=C1/C(C#N)=C(N)N(c2ccc(Cl)cc2)C1(C)/C(=C\C(=O)OC)C(=O)OC)C(=O)OC (stereo unspecified) | 60.2 µM | 
Cc1c2ccnc(C(N)=O)c2c(C)c2c1[nH]c1ccccc12 | 37.7 µM and 16.5 µM | 4.14 µM
Cc1ccccc1-c1nc2c(N)nc(N)nc2nc1N | > 100 µM | 
O=c1c2c3c(sc2[nH]c(=S)n1-c1ccccc1)CCCc1ccc([N+](=O)[O-])cc1-3 | > 100 µM | 
CCOC(=O)c1c(N2CCCC2)[nH]c(=O)c(C(c2ccc(OC)cc2)c2c(O)c(C(=O)OCC)c(N3CCCC3)[nH]c2=O)c1O | > 100 µM | 
CC1CC(N2CCOCC2)=Nc2ccccc2N1C (stereo unspecified) | > 100 µM | 
CCOC1C=CC(=O)C(CO)O1 (stereo unspecified) | 27.9 µM | 
COC(=O)CC(=O)OSc1ccccc1 | 24.1 µM | 
CC(C)C(Br)CCC1=CCC(Br)(Br)C1 (stereo unspecified) | 28.8 µM | 
COCOc1ccc(C(=O)Oc2cccc3c2OC(C)(C)O3)c(OCOC)c1 | > 100 µM | 
COc1cc2ccc3c4cc(OC)c(OC)cc4c[n+](C)c3c2cc1O | > 87.9 µM | 
COc1cccc(C2c3cc4c(cc3OC(O)C2C)OCO4)c1OC (stereo unspecified) | 40.2 µM | 
CCOC(=O)/C=C/c1nc(C#N)c(N)o1 | > 100 µM | 
